According to patent US20080318892A1, “METHODS AND FORMULATIONS FOR PROTECTING CELLS, AND FOR TREATING DISEASES AND CONDITIONS BY OPTIMIZING THE INTRACELLULAR CONCENTRATION OF NAD” (priority 2007, published 2008):

Tests used:
[1] = molecular target: T1, Nampt (Homo sapiens, UniProt P43490); experiment: Nicotinamide phosphoribosyltransferase (Nampt/PBEF) activity in SMC lysates, [14C]nicotinamide to NMN; type: cell-based; conditions: human Nampt cDNA by retrovirus
T1 construct: endogenous in cells; host or cells: human vascular SMCs (primary and HITC6), whole cell lysates
Method: Nicotinamide Phosphoribosyltransferase Activity. […] Labelled acetone-precipitable nicotinamide mononucleotide was quantified by scintillation counting.
Assessment of Nicotinamide Phosphoribosyltransferase Activity. […] Briefly, SMCs were lysed in buffer containing 10 mM NaH2PO4/Na2HPO4, at pH 8.8. Cell lysates were incubated with 0.5 μM [carbonyl-^14C]nicotinamide and 0.5 mM phosphoribosylpyrophosphate for 4 h on a rotating rocker at 37° C.

[2] = system: SIRT1; experiment: Western blot of SIRT1 protein expression in SMCs; type: cell-based, human; conditions: PBEF overexpression; p=0.02
Method: Western Blot and Immunoprecipitation Analysis. Protein expression was assessed by Western blot analysis with chemiluminescence detection, as previously described (Rocnik, 2002). PBEF was detected using a rabbit polyclonal anti-human PBEF/Pre-B-cell colony enhancing factor antibody (Bethyl Laboratories, Montgomery, Tex.). SIRT1 was detected using a rabbit polyclonal anti-SIRT1 antibody (Abcam, Cambridge, Mass.) and p53 and α-tubulin were detected with monoclonal antibodies (CO-1, Santa Cruz, Calif. and Clone B-5-1-1, Sigma, Oakville, ON, respectively). Cytoplasmic p53 was similarly assessed following cell fractionation (NucBuster, Novagen Minneapolis, Minn.). Identification of p53 that underwent NAD^+-dependent removal of an acetyl group on residue K382 was determined by pretreating SMCs for 2 h with 5 μM trichostatin A (TSA), immunoprecipitating p53 from the cell lysate with a goat polyclonal antibody (R&D Systems, Minneapolis, Minn.), and immunoblotting using a rabbit polyclonal anti-acetylated p53 (K382) antibody (American Proteomics, Carlsbad, Calif.) and HRP-labelled donkey anti-rabbit IgG antibody (Amersham, Piscataway, N.J.).
Western Blot Analysis. Protein expression was assessed by Western blot analysis of confluent cultured SMCs, as previously described (Rocnik et al., 2002). […] Signal was detected by chemiluminescence (Pierce, Rockford, Ill., USA).

[3] = system: HITB5 SMC's; experiment: SMC proliferation (cell accumulation over 11 days); type: cell-based, human; conditions: PBEF-overexpressing HITB5 SMCs, 5% serum, p<0.01 vs EGFP control
Method: (§1) Cell Proliferation, DNA Synthesis, and Apoptosis were also evaluated. To assess SMC proliferation, cells were plated at a density of 3000 cells per cm^2 and cultured in M199 containing 5% FBS. Triplicate wells were harvested at the designated times and counted using a hemacytometer. To quantify DNA synthesis, cells in log-phase growth were incubated for 12 hours with [^3H]thymidine (10 μCi/mL) and TCA-precipitable counts determined as described (5). Thymidine incorporation was expressed relative to DNA content, quantified by spectrofluorimetry of an aliquot of cell lysate incubated with 500 μg/ml Hoechst 33258. Apoptosis was assessed in SMCs seeded on glass coverslips by in situ end-labeling of DNA fragments using terminal deoxynucleotide transferase and fluorescein 12-dUTP (Promega) (5). Cells were fixed with 4% paraformaldehyde and counterstained with Hoechst 33258.

[4] = system: HITB5 SMC's; experiment: DNA synthesis ([3H]thymidine incorporation); type: cell-based, human; conditions: PBEF-overexpressing HITB5 SMCs
Method: as §1

[5] = system: primary human vascular SMCs; experiment: Replicative lifespan (cumulative population doublings) of primary SMCs; type: cell-based; conditions: primary adult SMCs overexpressing Nampt
[6] = system: HITC6 SMCs; experiment: Replicative lifespan (cumulative population doublings) of HITC6 SMCs; type: cell-based, human
Method: To quantify replication, cells were plated at 4500 cells/cm^2 and growth medium with 10% FBS was changed every two days until cells reached 90-95% confluence. Harvested cells were counted from triplicate plates and the number of population doublings was calculated based on: [log10(number of cells harvested)−log10(number of cells seeded)]/[…] (Fukuhara, 2005). Population growth curves were compared using both nonlinear regression and two-way analysis of variance.
Cell Culture. Experiments were performed using primary human SMCs and the HITC6 clonal SMC line, both derived from segments of human internal thoracic artery (Li et al., 1999; Li et al., 2001). SMCs were maintained at 37° C. with 5% CO2 and cultured in Medium 199 (Invitrogen, Carlsbad, Calif., USA) supplemented with 25 mM HEPES, 10% FBS, 1% penicillin/streptomycin, and 1% L-glutamine. Phoenix cells (distributed by ATCC, Manassas, Va., USA) were maintained at 37° C. with 5% CO2 and cultured in Dulbecco's modified Eagle's medium (Invitrogen, Carlsbad, Calif., USA). To quantify replication, cells were seeded at a density of 4500 cells/cm2 and population doublings were calculated using the following formula: […].

[7] = system: human aortic endothelial cells; experiment: Longevity and genomic stability (tetraploidy) of human aortic endothelial cells under glucose stress; type: cell-based; conditions: for longevity: cells overexpressing NamPT
Source text: Generation of Nampt-overexpressing HAEC populations. HAEC were infected with retrovirus encoding an eGFP-Nampt fusion protein. A control population was infected with eGFP alone. Transduced HAEC were FACS selected for low (eGFP-Namptlo) and high (eGFP-Nampthi) levels of transgene expression based on GFP fluorescence. Control cells were selected to achieve eGFP expression (eGFP+) at a level similar to the eGFP-Namptlo cells. Levels of GFP fluorescence were confirmed by microscopy.
Assessment of longevity and genomic stability. Triplicate cell populations were plated at 1000 cells/cm2 and were serially subcultured at 80% confluence until growth curves reached plateau. Population doublings were calculated using the standard formula. At certain time points cells were harvested, fixed, and DNA content was analyzed. Tetraploid cells were counted as a proportion of the total population using ModFit software.

T1 sequence (P43490 whole entry): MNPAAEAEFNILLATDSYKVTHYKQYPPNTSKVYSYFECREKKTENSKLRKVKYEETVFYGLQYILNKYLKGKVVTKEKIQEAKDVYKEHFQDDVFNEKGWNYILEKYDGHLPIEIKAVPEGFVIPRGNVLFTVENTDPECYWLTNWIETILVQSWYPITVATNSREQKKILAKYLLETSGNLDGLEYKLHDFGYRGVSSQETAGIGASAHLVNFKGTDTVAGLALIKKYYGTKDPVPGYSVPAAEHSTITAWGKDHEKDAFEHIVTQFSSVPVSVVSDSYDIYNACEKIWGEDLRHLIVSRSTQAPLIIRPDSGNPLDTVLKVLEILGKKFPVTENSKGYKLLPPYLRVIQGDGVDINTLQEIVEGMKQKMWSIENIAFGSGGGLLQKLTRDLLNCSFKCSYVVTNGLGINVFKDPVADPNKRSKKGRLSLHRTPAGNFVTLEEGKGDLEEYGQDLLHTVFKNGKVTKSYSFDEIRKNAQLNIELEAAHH

“PBEF: 52-55 kD protein, rate-limiting enzyme for NAD+ biosynthesis from nicotinamide; tested by retroviral cDNA overexpression in cells” was tested, and the “increase in Nampt activity in stably transduced SMCs” value [1] was 7.1±3.1 fold, the “abundance of SIRT1 protein” value [2] was 1.3±0.3 fold and the doubling time [3] was 5.4 days. For the same substance, the “thymidine incorporation vs control cells” value [4] was “no detectable difference”, the “additional population doublings beyond vector-infected SMCs” value [5] was 2.1±0.3 population doublings and the prolongation of lifespan ([5]; p=0.01) was 34±4%. For the same substance, the additional population doublings ([6]; HITC6 SMCs overexpressing Nampt) was 6.3±0.3 population doublings, the extension of lifespan ([6]; HITC6 SMCs overexpressing Nampt, p=0.003) was 71±7% and the “additional population doublings conferred by Nampt” value ([6]; double-transduction experiment, Nampt without SIRT1 H363Y) was 5.4±0.5 population doublings. The “age- or high glucose-induced tetraploidy” value ([7]; Nampt overexpressing cells) was “no occurrence”, the longevity ([7]; glucose stress (30 mM glucose)) was “significantly augmented longevity” and the longevity ([7]; normal glucose (5 mM)) was “mildly improved longevity”.
